The source of these data is article PMC6515058 (International Journal of Molecular Sciences, 2019).

Series [1] deals with chicken intestinal P-gp. The series can be described thus: In situ single-pass intestinal perfusion of Rho123 in berberine-treated broilers. In kind it is in vivo. Here is the method: (§1) Arbor Acres broilers (one day old) were purchased from the Liuhe Hatchery (Nanjing, Jiangsu, China). The broilers were provided a basal diet and water ad libitum and managed under the recommended humidity and temperature for 6 weeks. Then, 18 healthy broilers with similar body weight (b.w.) were randomly divided into three groups (6 broilers/group). Group I was administered phosphate-buffered saline for 24 h (control).
The broilers were divided into three experimental groups and drugs were administered as described above. Broilers were fasted for 12 h with free access to water before the perfusion experiment. Then, the animals were anesthetized with urethane intraperitoneally (0.5 mL/kg b.w.) and an incision was made through the abdominal cavity. A 10-cm intestinal segment was carefully exposed to air for intestinal perfusion. Two polyethylene cannulas were inserted through small slits at the proximal and distal ends (inlet and outlet). Initially, the intestinal segment was gently flushed with Krebs-Ringer buffer for about 30 min until a clear effluent flowed out. Then, Rho123 (1.5 ng/mL) solution was introduced into the loop at a constant flow rate of 0.2 mL/min. The intestinal fluid was collected in bottles at the outlet of the intestine at intervals of 10 min for up to 100 min. The lengths and internal radii of the intestinal segments were measured after all of the chickens were killed by cervical dislocation.
All samples were weighed and centrifuged for 10 min at 4500 rpm. The supernatants were filtered using a 0.22-μm filter (Millipore, Burlington, MA, USA) and samples were collected for analysis by high-performance liquid chromatography (HPLC).

Series [2] relates to chicken P-gp. The series can be described thus: Bidirectional transport of Rho123 across MDCK-chAbcb1 cell monolayer (P-gp inhibition). In kind it is cell-based. The conditions noted are these: for Papp A→B at 80 min, 4 mM: read-out: Papp AP→BL of Rho123. Here is the method: (§2) The MDCK-chAbcb1 cell line stably expressing chicken P-gp was previously established in our laboratory. Briefly, the full-length chicken cDNA was first cloned into the pcDNA3.1 vector and then transfected into MDCK cells using Lipofectamine 2000. Single cells stably expressing chicken P-gp were collected using the limited dilution method in medium containing hygromycin B (100 μg/mL) to obtain the MDCK-chAbcb1 cell line. The cell line was cultured in Dulbecco’s modified Eagle’s medium containing 10% fetal bovine serum, antibiotics (100 IU/mL penicillin and 80 IU/mL streptomycin), and 50 μg/mL hygromycin B and incubated at 37 °C in humidified air with 5% CO2.
The samples were collected at 20, 40, 60, and 80 min from the receiving sides and analyzed by HPLC.
(§3) In the third equation, A is the membrane surface area of the filter, C0 is the initial concentration of the test drug, dQ is the amount of transported drug, and dt is the time elapsed. In the fourth equation, Papp B→A and Papp A→B are the apparent permeability coefficients for the basolateral-to-apical and apical-to-basolateral directions, respectively.
The inhibition rate was calculated using the following equation:(5) Inhibition rate=ERcontrol−ERtreatment/ERcontrol

In series [3] the test system is chicken P-gp. The series can be described thus: Bidirectional transport of veterinary drugs across MDCK-chAbcb1 cell monolayer with berberine. The conditions noted are these: for efflux ratio at 20 μM: chicken. As for the experimental part:
as §2
Then, the samples collected from the receiving sides were subjected to an HPLC analysis. Of note, the transport periods for all of the drugs were determined by a preliminary experiment to avoid the saturation of P-gp.
The apparent permeability coefficients (Papp) and the efflux ratio (ER) were calculated as follows:(3) Papp=dQ/dt×1/(A×Co) (4) ER=Papp(B→A)/Papp(A→B)
as §3

Series [4] relates to chicken xenobiotic receptor (CXR) mRNA. The experiment in a line: CXR mRNA expression in the ileum of broilers by real-time RT-PCR after oral berberine. In kind it is in vivo. The conditions noted are these: berberine 40 and 80 mg/kg, 24 h, vs control, p < 0.01. As for the experimental part:
Arbor Acres broilers (one day old) were purchased from the Liuhe Hatchery (Nanjing, Jiangsu, China). The broilers were provided a basal diet and water ad libitum and managed under the recommended humidity and temperature for 6 weeks. Then, 18 healthy broilers with similar body weight (b.w.) were randomly divided into three groups (6 broilers/group). Group I was administered phosphate-buffered saline for 24 h (control). […] Chicken treatment procedures were approved by the Science and Technology Agency of Jiangsu Province (approval no. 2017-0007, approval date: 15th, February, 2017) and performed in accordance with the guidelines of the Science and Technology Agency of Jiangsu Province and Nanjing Agricultural University. Broilers were divided into three experimental groups and drugs were administered as described above. At the end of experiments, animals were killed by decapitation. The ileum samples were collected immediately and stored at −80 °C for further tests. […] RNAs were quantified using a photometer (Eppendorf, Hamburg, Germany) at 260/280 nm. […] Chicken Abcb1 and chicken xenobiotic receptor (CXR) mRNAs were quantified using SYBR Green Realtime PCR Master Mix (Toyobo, Japan) on a real-time PCR detection system (Bio-Rad Laboratories, Hercules, CA, USA). […] Relative levels of Abcb1 and CXR were analyzed using the 2^−ΔΔCt method.
On the technique in general: Real-time PCR tracks product formation cycle by cycle.

For series [5], the system named is Abcb1 mRNA. The series can be described thus: Abcb1 mRNA expression in the ileum of broilers by real-time RT-PCR after oral berberine. It is filed as in vivo. The conditions noted are these: berberine 40 and 80 mg/kg, 24 h, vs control, p < 0.01. Here is the method: as §1
GAPDH was used as an internal control.

On the set-up of series [6]: method as in data published in a Chinese journal, Figure S3. The conditions noted are these: broilers, berberine co-administration; ref data published in a Chinese journal, Figure S3; cited from earlier work.
Series [7] in a line: Bidirectional transport of berberine across MDCK parental cell monolayer. It is filed as in vitro ADME. The conditions noted are these: dog.
In series [8] the test system is chicken P-gp. The experiment in a line: Bidirectional transport of berberine across MDCK-chAbcb1 cell monolayer. The conditions noted are these: for efflux ratio at 4 h, 100 μM: chicken. In kind it is in vitro ADME.
[9] abbreviates: chicken, control of 8 h series, no berberine.

The structures appear in SMILES notation. Where two headings read alike, the source gives them in different places.

Broadly, the Papp is the rate of passage across a membrane or cell layer, normalised by area and donor concentration. A higher Papp goes with fast passage. On to `COC(=O)c1ccccc1-c1c2ccc(=N)cc-2oc2cc(N)ccc12` [Rho123, rhodamine 123], for which, in series [1] (Arbor Acres, chicken, other: in situ single-pass intestinal perfusion), the Papp at 100 min, 1.5 ng/mL came to 123 ± 42 ×10⁻⁶ cm/s. Further, the “Ka of Rho123” value in series [1] (control (no berberine), in situ perfusion, n = 6) came out at 1.12 ± 0.28 min⁻¹. Also, the efflux ratio at 2 h, 4 mM in series [2] (chicken, control of 2 h series, no berberine, read-out: Efflux ratio of Rho123) turned out to be 7.28 ± 0.98; in series [2] (chicken, control of verapamil series, verapamil 0 µM, read-out: Efflux Ratio of rhodamine 123), 6.24 ± 0.7. For the same molecule, the Papp A→B at 80 min, 4 mM amounted to 8.86 ± 1.38 ×10⁻⁶ cm/s in series [2] (chicken, control of 2 h series, no berberine) and 8.62 ± 1.24 ×10⁻⁶ cm/s in series [2] (setting [9]). Besides, the Papp B→A at 2 h, 4 mM in series [2] (chicken, control of 2 h series, no berberine, read-out: Papp BL→AP of Rho123) is 62.9 ± 7.69 ×10⁻⁶ cm/s; in series [2] (chicken, control of verapamil series, verapamil 0 µM, read-out: Papp BL→AP of rhodamine 123), 54.4 ± 4.34 ×10⁻⁶ cm/s. The efflux ratio at 8 h, 4 mM in series [2] (setting [9]) is 7.24 ± 0.49. Further, in series [2] (chicken, control of 8 h series, no berberine, read-out: Papp BL→AP of Rho123), the Papp B→A at 8 h, 4 mM was 60.1 ± 5.13 ×10⁻⁶ cm/s. Also, the Papp A→B at 2 h, 4 mM in series [2] (chicken, control of verapamil series, verapamil 0 µM, read-out: Papp AP→BL of rhodamine 123) amounted to 8.04 ± 0.76 ×10⁻⁶ cm/s.
In the case of `CCN1CCN(c2cc3c(cc2F)c(=O)c(C(=O)O)cn3C2CC2)CC1` [enrofloxacin], the efflux ratio at 20 μM in series [3] worked out at 2.01.
Consider `Nc1ccc(S(=O)(=O)Nc2ncccn2)cc1` [sulfadiazine], for which, in series [3], the efflux ratio at 20 μM worked out at 2.77.
Turning to `COc1ccc2cc3[n+](cc2c1OC)CCc1cc2c(cc1-3)OCO2` [berberine], the “CXR mRNA level in the ileum” value in series [4] was “significantly down-regulated”. Moreover, the “Abcb1 mRNA level in the ileum” value in series [5] is listed as “significantly down-regulated”. For the same molecule, the “Bioavailability of orally administered enrofloxacin” value in series [6] was “increases the bioavailability”. In addition, the “Rho123 concentrations in the perfusion fluid” value in series [1] (berberine 40 and 80 mg/kg, 24 h, vs control, p < 0.05) is recorded as “obvious decrease”. Besides, the “Inhibition rate (of Rho123 efflux ratio)” value in series [2] (berberine 5 μM, 2 h) amounted to 41.48%; in series [2] (berberine 5 μM, 8 h) it was 39.64%; in series [2] (berberine 20 μM, 2 h) it was 53.3%; in series [2] (berberine 20 μM, 2 h, listed as Berberine), 53.30%; in series [2] (berberine 20 μM, 8 h) it was 62.57%; in series [2] (berberine 40 μM, 2 h), 73.6%. Further, the “Inhibition rate (of Rho123 efflux ratio)” value in series [2] (berberine 40 μM, 2 h, listed as Berberine) is on record as 73.63%; in series [2] (berberine 40 μM, 8 h), 68.23%. Further, the efflux ratio at 4 h, 100 μM in series [7] is 1.24; in series [7] (with verapamil 100 μM) it was 1.21; in series [8], 4.2; in series [8] (with verapamil 100 μM), 1.13. In addition, the “Transport ratio (r) of berberine” value in series [8] (MDCK-chAbcb1 cells, without verapamil, berberine 100 μM, 4 h) turned out to be 4.2. Moreover, the ER of sulfadiazine entry in series [3] (berberine 20 μM, 2 h pre-incubation, sulfadiazine 20 μM) is given as “did not obviously alter the ER”.
Consider `CC[C@H]1OC(=O)C[C@@H](O)[C@H](C)[C@@H](O[C@@H]2O[C@H](C)[C@@H](O)[C@H](N(C)C)[C@H]2O)[C@@H](CCN2C[C@H](C)C[C@H](C)C2)C[C@@H](C)C(=O)/C=C/C(C)=C/[C@@H]1CO[C@@H]1O[C@H](C)[C@@H](O)[C@@H](OC)[C@H]1OC` [tilmicosin], for which, in series [3], the efflux ratio at 20 μM came out at 4.26.
